{"source": "patent US20130137757A1", "about": "(priority 2010, published 2013)", "key": {"[1]": {"system": "influenza viruses A/PR/8/34 (H1N1 type) strain", "experiment": "hemagglutination inhibition test", "type": "cell-based, influenza virus", "details": "guinea pig red blood cell suspensions, A/PR/8/34 (H1N1) strain, in PBS"}, "[2]": {"system": "influenza viruses A/Memphis/1/71 (H3N2 type) strain", "experiment": "hemagglutination inhibition test", "type": "cell-based, influenza virus", "details": "guinea pig red blood cell suspensions, A/Memphis/1/71 (H3N2) strain, in PBS"}}}
{"substance": "deoxyribonucleic acid [DNA]", "values": [{"measurement": "hemagglutination (visual and microscopic observation)", "setting": "[1]", "result": "strong hemagglutination was observed"}, {"measurement": "hemagglutination (visual and microscopic observation)", "setting": "[2]", "result": "strong hemagglutination was observed"}]}
